The source of these data is patent US20050059735A1, “Cyclic amino acid derivatives useful as pharmaceutical agents” (priority 2000, published 2005).

The conditions of series [1]: rat, in vivo, po, 5 mg/kg.
The nature of a further series: in vivo. The following applies: rat, po.

Each structure is given as a SMILES string. Where two headings read alike, the source gives them in different places.

Consider `O=C(CC1(CNC(=O)c2ccccc2)CCCCC1)OCc1ccccc1` [Example 10, [1-(Benzoylamino-methyl)-cyclohexyl]-acetic acid benzyl ester], for which, in series [1], the half-life entry is reported as “about 6 hrs”. On to `NCC1(CC(=O)O)CCCCC1` [gabapentin, 1-(aminomethyl)-cyclohexylacetic acid], for which the half-life in the series “in vivo” is 1.2 h.
